Measurements: patent US20250262336A1, “[177LU] LUTETIUM-PSMA I&T COMPOSITION AND DOSIMETRY, KIT, METHOD OF MAKING, AND METHOD OF USING THEREOF” (Curium US LLC, priority 2023, published 2025)
Where “and” joins values, the source holds several entries; their conditions need not be identical. Equal entries are not always repeated.

Assay: Cycle 1 plasma PK (gamma counting of plasma, bi-exponential fit)
Type: in vivo, human
Method: Additionally, for PK assessment, whole blood samples were collected at six timepoints (Pre-Infusion, 1 h, 4 h, 24 h, 48 h, and 168 h) and processed to extract plasma. All plasma samples were gamma counted locally for analysis of pharmacokinetics.
PK plasma samples were collected at pre-Infusion, 1 h, 4 h, 24 h, 48 h, and 168 h, and counted for radioactivity. Blood samples were first centrifuged to extract plasma, and then the radioactivity in plasma was counted in a gamma counter.
Whole blood samples were collected as detailed in the protocol Schedule of Events i.e. pre-injection, and then at 1 h, 4 h, 24 h, 48 h, and 168 h post-injection. The samples were first centrifuged to separate plasma, and the radioactivity in the plasma was then measured using a gamma counter. Plasma concentrations were subsequently fitted with a bi-exponential function to derive outcome parameters such as the half-life and clearance rate of the radiopharmaceutical in the plasma.
For each sample, collect sufficient sample volume for triplicate aliquots to meet the measurement requirements of your institution's gamma counter and perform measurements according to standard procedure. Blood will be processed and plasma will be measured on the gamma counter, as described in the following subsections.
All blood samples drawn must be aliquoted 3 times, labeled appropriately, and stored per standard procedure for later measurement of plasma in the qualified gamma counter. All samples will be counted as a group for each patient for each Cycle, no later than 24 hours following the final sample collection.
Collect 5 ml of blood in a BD PPT system (Plasma Protein Preservation Tube-draw volume of 5 mL).
Centrifuge at 18-25° C. at 1100 g for 10 min. The resulting supernatant is designated plasma.
Gamma Counter Measurements: All patient samples must be counted for 60 seconds, with a counting energy window of 102-229 keV.

[1] = Cycle 1, plasma, patient 42-030 excluded

- AUC Total, Mean [1]: 22.77 fIA/L × min
- AUC Total, max [1]: 37.86 fIA/L × min
- AUC Total, median [1]: 20.84 fIA/L × min
- AUC Total, min [1]: 3.07 fIA/L × min
- Peak Concentration Value, Mean [1]: 0.04 fIA/L
- Peak Concentration Value, max [1]: 0.07 fIA/L
- Peak Concentration Value, median [1]: 0.04 fIA/L
- Peak Concentration Value, min [1]: 0.01 fIA/L
- Time of Peak Concentration [1]: 33.00 min
- Time of Peak Concentration, Mean [1]: 59.19 min
- Time of Peak Concentration, max [1]: 127.00 min
- Time of Peak Concentration, median [1]: 59.00 min
- Vc, Mean [1]: 20.29 L
- Vc, max [1]: 111.78 L
- Vc, median [1]: 16.33 L
- Vc, min [1]: 9.92 L
- time to peak, patient 80-007 (cycle 1, first post-administration sample acquired with a delay): 127 min
SMILES: O=C(O)CC[C@H](NC(=O)N[C@@H](CCCCNC(=O)CCCCCCC(=O)NCCCC[C@@H](NC(=O)[C@@H](Cc1ccccc1)NC(=O)[C@@H](Cc1ccc(O)c(I)c1)NC(=O)CC[C@H](C(=O)O)N1CCN(CC(=O)O)CCN(CC(=O)O)CCN(CC(=O)O)CC1)C(=O)O)C(=O)O)C(=O)O [^177Lu-PSMA-I&T, (3S,7 S,26R,29R,32R,37R)-29-benzyl-32-(4-hydroxy-3-iodobenzyl)-5,13,20,28,31,34-hexaoxo-37-(4,7,10-tris(carboxymethyl)-1,4,7,10-tetraazacyclododecan-1-yl)-4,6,12,21,27,30,33-heptaazaheptatriacontane-1,3,7,26,37-pentacarboxylic acid; lutetium-177 (III), metal not drawn]
- Time of Peak Concentration (Cycle 1, plasma, individual patients, time of first sample): 53.00 min and 60.00 min (6×) and 51.00 min (2×) and 58.00 min and 61.00 min (2×) and 50.00 min and 63.00 min and 57.00 min and 55.00 min and 52.00 min (2×) and 68.00 min and 71.00 min and 65.00 min and 33.00 min and 40.00 min and 69.00 min and 56.00 min and 127.00 min and 47.00 min
- Peak Concentration Value (Cycle 1, plasma, individual patients, value at first sample): 0.04 fIA/L (10×) and 0.03 fIA/L (4×) and 0.05 fIA/L (7×) and 0.01 fIA/L and 0.06 fIA/L (2×) and 0.02 fIA/L and 0.07 fIA/L (2×)
